According to US6825185B2, “Substituted aryl compounds as novel cyclooxygenase-2 selective inhibitors, compositions and methods of use” (NitroMed, Inc., priority 2000, dated 2004):

What was measured:
COX-1 = COX-1 (Homo sapiens, UniProt P23219); assay: COX-1 enzyme activity in human whole blood (A23187 stimulated, thromboxane B2 EIA); assay type: cell-based; design: Human blood (≈50 mL) from male or female donors who had not received any aspirin or NSAIDs for 14 days; endogenous in cells; host or cells: human whole blood from donors; details: test compound at 100 μM
COX-2 = target: T1, COX-2 (Homo sapiens, UniProt P35354); assay: COX-2 enzyme activity in human whole blood (LPS induced, thromboxane B2 EIA); assay type: cell-based; design: Human blood (≈50 mL) from male or female donors who had not received any aspirin or NSAIDs for 14 days; endogenous in cells; host or cells: human whole blood from donors, LPS-induced; details: test compound at 10 μM
T1 sequence (P35354 18-604): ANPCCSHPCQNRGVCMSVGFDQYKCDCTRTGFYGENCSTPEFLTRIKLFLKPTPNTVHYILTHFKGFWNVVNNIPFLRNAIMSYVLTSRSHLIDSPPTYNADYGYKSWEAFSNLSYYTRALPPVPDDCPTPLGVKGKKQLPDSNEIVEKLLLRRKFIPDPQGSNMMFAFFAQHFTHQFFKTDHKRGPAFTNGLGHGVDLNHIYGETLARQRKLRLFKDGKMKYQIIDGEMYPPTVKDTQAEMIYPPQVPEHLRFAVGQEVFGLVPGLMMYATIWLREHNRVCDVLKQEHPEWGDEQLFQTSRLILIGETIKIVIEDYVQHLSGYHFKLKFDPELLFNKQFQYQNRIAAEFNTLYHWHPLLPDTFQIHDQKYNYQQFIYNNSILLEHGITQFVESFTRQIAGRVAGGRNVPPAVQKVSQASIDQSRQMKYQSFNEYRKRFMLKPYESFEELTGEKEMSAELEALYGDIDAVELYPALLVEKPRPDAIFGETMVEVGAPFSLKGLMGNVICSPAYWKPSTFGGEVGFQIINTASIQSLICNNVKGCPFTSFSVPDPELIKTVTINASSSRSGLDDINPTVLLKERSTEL

COX-1, sequence (P23219 24-599): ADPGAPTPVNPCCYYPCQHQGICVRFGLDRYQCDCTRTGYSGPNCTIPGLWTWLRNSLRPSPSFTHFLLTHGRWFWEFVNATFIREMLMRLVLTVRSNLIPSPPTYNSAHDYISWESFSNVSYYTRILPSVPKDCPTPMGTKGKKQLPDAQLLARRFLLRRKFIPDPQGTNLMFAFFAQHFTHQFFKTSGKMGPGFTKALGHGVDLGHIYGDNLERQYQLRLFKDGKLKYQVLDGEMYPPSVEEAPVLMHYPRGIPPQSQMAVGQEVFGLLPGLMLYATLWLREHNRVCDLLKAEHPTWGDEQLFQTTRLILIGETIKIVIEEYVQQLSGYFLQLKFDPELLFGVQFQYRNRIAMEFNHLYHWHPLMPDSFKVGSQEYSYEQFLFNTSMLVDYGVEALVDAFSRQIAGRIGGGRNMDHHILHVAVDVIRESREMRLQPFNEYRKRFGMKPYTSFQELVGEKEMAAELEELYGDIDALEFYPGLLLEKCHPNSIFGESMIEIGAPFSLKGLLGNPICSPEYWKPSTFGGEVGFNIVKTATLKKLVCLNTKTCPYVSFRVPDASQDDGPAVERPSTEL

| Compound | inhibition at 100 µM (COX-1) | inhibition at 10 µM (COX-2) | melting point |
| --- | --- | --- | --- |
| CS(=O)(=O)c1ccc(-c2cc3c(cc2C(=O)c2cc(F)cc(F)c2)OCCO3)cc1 [Example 22, 3,5-Difluorophenyl 7-(4-(methylsulfonyl)phenyl)(2H, 3H-benzo(e)1,4-dioxin-6-yl) ketone] | 90% | 55% | 191 to 193 °C |
| CS(=O)(=O)c1ccc(-c2ccccc2C=C2CCCCC2)cc1 [Example 24e, 1-(2-(Cyclohexylidenemethyl)phenyl)-4-(methylsulfonyl)benzene] | 55% | 90% | 83 °C |
| CS(=O)(=O)c1ccc(-c2ccccc2C(=O)c2cccc(F)c2)cc1 [Example 25c, 3-Fluorophenyl 2-(4-(methylsulfonyl)phenyl)phenyl ketone] | 40% | 40% | 105 to 106 °C |
| CS(=O)(=O)c1ccc(-c2ccccc2Cc2cccc(F)c2)cc1 [Example 26, 1-(2-((3-Fluorophenyl)methyl)phenyl)-4-(methylsulfonyl)benzene] | 25% | 10% | 97 to 98 °C |
